Here are results for 14 compounds from patent US20240228987A1, “HEXOKINASE-DERIVED PEPTIDES AND THERAPEUTICAL USES THEREOF” (INSERM (INSTITUT NATIONAL DE LA SANTÉ ET DE LA RECHERCHE …, priority 2021, published 2024).

One series has as its target T1, VDAC (Homo sapiens, UniProt P21796).
T1 construct: HEK-293 cells, expressing VDAC and HK; endogenous in cells; host or cells: HEK-293 (ATCC), transfected only with the Ca2+ probes mitoGCaMP2 / GCaMP2
Nature of the series: in-cellulo screening assay: HEK-293 cells transfected with mitoGCaMP2, MJ-induced mitochondrial Ca2+ release through VDAC. The conditions noted are these: for activity / affinity for VDAC on the screening assay (mitoGCaMP2 fluorescence): MJ 6 mM. The class given is cell-based.

The next series has as its system Schwann cells. The conditions noted are these: cited from earlier work.
For another series, the system named is sciatic nerve explants. Nature of the series: sciatic nerve explant culture and CARS imaging (demyelination). The class given is cell-based, mouse. The note with it: 3 μM. An excerpt: FIG. 11: Effects of NHKI-derived peptides 3c, 5x, 7d and 7g on sciatic nerve explants cultured in medium supplemented with serum. (A) Representative CARS images showing myelin (green) of an intact sciatic nerve collected and immediately fixed in 4% PFA and a sciatic nerve explant cultured in medium supplemented with FBS referred as negative control. (B) Representative CARS images showing myelin (green) of sciatic nerve explants cultured in medium supplemented with FBS containing NHKI-derived peptides at 3 μM for 24 h. All nerves are represented in longitudinal sections. Healthy myelin sheath (white arrows), Node of Ranvier (white stars) and myelin ovoids (orange arrows) are illustrated. Scale bar: 20 μm. (C) Graph showing the percentage of damaged fibers in intact nerves (white plot), negative controls (light grey plot), 3c and its analog 7d (blue plots) 5x and its analog 7g (red plots). (N=3 independent experiments). Results are expressed as means±SD. Statistical analysis using one-way ANOVA followed by Dunnett's multiple comparison tests. *p<0.05, **p<0.01. ns, non-significant.
Twelve-week-old C57BL6/J mice were euthanized using Pentobarbital (54.7 mg/ml, 100 mg/kg, Centravet, France). First, sciatic nerves were collected, washed in PBS and their epineurium was removed. Next, 5 mm long nerves were put in 24-well microplates (NUNC, Thermo Fisher Scientific, France) in 500 μl of DMEM supplemented with 1% PS and with or without 10% FBS containing the compounds at 3 μM containing 0.1% DMSO, and further incubated in a humidified chamber at 37° C. and 5% CO2. Negative controls consisted in sciatic nerve explant cultures without compounds (only DMEM supplemented with 1% PS, with or without 10% FBS and 0.1% DMSO). Intact sciatic nerves collected and immediately fixed in 4% PFA served as a control of healthy myelin sheath for CARS imaging. After 24 h in culture, sciatic nerve explants were washed three times with PBS and fixed for 1 h in 4% PFA aqueous solution (Electron Microscopy Sciences, Thermo Fisher Scientific, France) at room temperature. All CARS images were acquired with a two-photon microscope LSM 7 MP coupled to an OPO (Zeiss, France) complemented by a delay line. A ×20 water immersion objective (W Plan Apochromat DIC VIS-IR, Zeiss, France) was used for image acquisition. Each acquisition was conducted in three independent experiments. For each experiment, three ROIs per conditions were used to quantify the percentage of damaged fibers per field using Zen software (Zen 2.3 lite, Zeiss, France). Results are expressed as means±SD.
Next, we tested NHKI-derived compound activity on sciatic nerve explant cultures in which Schwann cells demyelinate through a mechanism involving mitochondrial Ca2+ release through VDAC1.44,45,9 Intact myelin was imaged and quantified in sciatic nerve explants using Coherent Anti-Stokes Raman Scattering (CARS) nonlinear microscopy. […] Demyelination was quantified by measuring the percentage of damaged fibers, i.e. displaying ovoid formation, over the total number of fibers imaged.

A short description of series [1]: in-vitro metabolic stability in rat serum. Type of series: in vitro ADME. The conditions noted are these: 25% (v/v) rat serum. As to the method:
FIG. 10: Study of the stability of NHKI derived sequence (3c′, 7a′, 7d′, 7f′-g′) towards rat serum (N=3 independent experiments). All peptides were tested at a concentration of 66.6 μmol/L in presence of 25% (v/v) of rat serum and water after incubation at 37° C. for 24 h. Errors bars show the standard deviation.
For each peptide, a stock solution in DMSO was prepared at a 6.66 mmol/L concentration. 70 μL of the solution were taken out and added to 630 μL of MilliQ water to make an aqueous peptide solution (0.666 mmol/L). The reaction consisted in 325 μL of MilliQ water and 125 μL of non-diluted rat serum pre-incubated at 37° C. for about 10-15 min before addition of 50 μL the peptide solution at 0.666 mmol/L. The mixture was incubated at 37° C. with shaking at 1000 rpm. Aliquots (25 μL) were taken at different time points (0 min, 5 min, 15 min, 30 min, 1h, 2h, 3h, 5h, 7h, 24h, 48h) and enzymatic reaction was quenched with 225p L of MeOH to precipitate all serum proteins. The Eppendorf tube was directly centrifuged (14000 rpm) for 20 min at 4° C. to remove precipitated proteins by pelleting.

Series [2] has as its target Elastase (from porcine pancreas, EC 3.4.21.36) (Sus scrofa, UniProt P00772). The note with it: Tris·HCl buffer pH 8, 37° C., peptides without Tat.
Experimental: A stock solution of Elastase at 1 mg/mL was prepared in Tris·HCl buffer (50 mM, pH 8, containing 0.5 mM CaCl2,). The stock solution was diluted at 0.94 mg/mL with 658 μL of stock solution in 42 μL of Tris·HCl buffer. All peptides were dissolved in DMSO to prepare a 6.66 mmol/L stock solution. A more diluted peptide solution (0.666 mmol/L) was prepared with 70 μL of stock solution in 630 μL of Tris·HCl buffer pH 8. In a 1.5 mL Eppendorf, 890 μL of Tris·HCl pH 8 was introduced followed by 100 μL of peptide solution (0.666 mmol/L) and incubated for 15 min at 37° C. prior to degradation. Then, 10 μL of Elastase solution (0.94 mg/mL) was added. The reaction mixture was incubated up to 4h at 37° C. with shaking at 1000 rpm. Aliquots (50 μL) were taken at different time points, quenched with 450 μL of MeOH, and centrifuged for 20 min (14000 rpm) at 4° C. The supernatant was transferred into an injection vial and analyzed by LC-MS with an eluting program of 0.1% formic acid in water and 0.1% formic acid in acetonitrile (see analytical data section). The relative concentrations of the remaining peptides and the cleavage products were calculated by integration of the corresponding peak in the HPLC chromatogram/MS trace. A control peptide solution was prepared without the enzyme. […] All proteolytic degradation experiments were carried out in triplicate.
Where [3] appears, read: compounds at 3 μM, compared with 3c, 4d or 5x.
[4] abbreviates: 24 h, medium supplemented with serum.

Where a SMILES comes first, the peptide text is derived from it. Where no end group is shown, it is not given here. [ ]: non-standard residue; d: D form. The star is where a group is joined. X1 = CC(C)(C(=O)*)n1cc(-c2cccc(C(F)(F)F)c2)nn1; Nle = CCCC[C@H](N)C(=O)O; Aib = CC(C)(N)C(=O)O

T1 sequence (P21796 2-283): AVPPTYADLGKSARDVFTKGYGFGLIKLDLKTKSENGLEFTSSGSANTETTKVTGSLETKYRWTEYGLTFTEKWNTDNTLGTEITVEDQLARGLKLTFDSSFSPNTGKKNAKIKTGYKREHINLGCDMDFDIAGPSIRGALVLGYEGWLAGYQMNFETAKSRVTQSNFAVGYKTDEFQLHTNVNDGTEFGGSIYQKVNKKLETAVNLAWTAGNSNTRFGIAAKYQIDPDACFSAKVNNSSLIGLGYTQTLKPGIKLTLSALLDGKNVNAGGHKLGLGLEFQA
Chain of Elastase (from porcine pancreas, EC 3.4.21.36) (P00772 27-266): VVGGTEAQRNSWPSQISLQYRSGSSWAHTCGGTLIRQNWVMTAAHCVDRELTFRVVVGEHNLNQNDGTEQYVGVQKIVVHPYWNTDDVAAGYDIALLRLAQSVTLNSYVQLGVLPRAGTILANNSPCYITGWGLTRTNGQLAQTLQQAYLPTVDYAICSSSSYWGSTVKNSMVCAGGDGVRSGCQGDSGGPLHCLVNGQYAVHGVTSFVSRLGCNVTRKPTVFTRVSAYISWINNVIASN
Experimental for VDAC: The activity of the designed compounds was assessed on HEK-293 cells transfected with mitoGCaMP2. 40,000 cells per well were seeded in 96-well-microplates coated with Poly-D-Lysine (reference 655946, Greiner Bio-One, France) in 200 μl of DMEM supplemented with 10% FBS and 1% PS. 24 h after seeding, cells were transfected with 50 ng of mitoGCaMP2 plasmid per well using jet-PRIME reagent (Polyplus-transfection S.A, France) according to the manufacturer's recommendations. 48 h after transfection, a first measure of fluorescence was performed using the microplate reader CLARIOstar® (BMG Labtech, France). This measurement represented the basal level of Ca2+ into the mitochondria upon transfection. After a wash with 100 μl of PBS, cells were incubated with a mixture of pre-heated (37° C.) MJ at a final concentration of 6 mM and compounds at the indicated final concentrations in PBS containing 0.1% DMSO and 5% EtOH. After 35 min in a cell incubator, a second measure of fluorescence was performed using the microplate reader CLARIOstar®. This measure represented the level of mitochondrial Ca2+ according to the peptide activity. Compounds were tested in triplicates per microplates and in three or five independent experiments for each peptide. For dose effect curves, compounds were tested in triplicates per microplates and in three independent experiments. Results are expressed as the ratio between the second and first measures and normalized to the conditions without compounds containing only PBS with 0.1% DMSO and 5% EtOH. Results are expressed as the means±SD in histogram plots and dose response curves using GraphPad Prism software (version 8.0.1).
The biological screening of the peptide is based on the ability of methyl jasmonate (MJ) to binds and detaches HK-1 from mitochondrial VDAC in a time and dose dependent manner.^16,20 For this purpose, we developed an in-cellulo screening assay in which HEK-293 cells, expressing VDAC and HK,25 were transfected with GCaMP2, a cytoplasmic Ca2+-sensing probe, or with mitoGCaMP2, the same probe addressed to mitochondrial matrix. […] MJ that removes HK from VDAC was used to induce a Ca2+ release outside mitochondria measured through a drop in mitoGCaMP2 fluorescence and an increase in GCaMP2 fluorescence in cells.

As for `CCCC[C@H](NC(=O)[C@H](CCC(N)=O)NC(=O)[C@@H]1CCCN1C(=O)[C@@H]1CCCN1C(=O)[C@H](CCCNC(=N)N)NC(=O)[C@H](CCCNC(=N)N)NC(=O)[C@H](CCCNC(=N)N)NC(=O)[C@H](CCC(N)=O)NC(=O)[C@H](CCCNC(=N)N)NC(=O)[C@H](CCCNC(=N)N)NC(=O)[C@H](CCCCN)NC(=O)[C@H](CCCCN)NC(=O)[C@H](CCCNC(=N)N)NC(=O)CNC(C)=O)C(=O)N[C@H](C(=O)N[C@@H](C)C(=O)N[C@@H](C)C(=O)N[C@@H](CCC(N)=O)C(=O)N[C@@H](CC(C)C)C(=O)N[C@@H](CC(C)C)C(=O)N[C@@H](C)C(=O)N[C@@H](Cc1ccc(O)cc1)C(=O)N[C@@H](Cc1ccc(O)cc1)C(=O)N[C@@H](Cc1ccccc1)C(=O)N[C@H](C(=O)N[C@@H](CCC(=O)O)C(=O)N[C@@H](CC(C)C)C(=O)N[C@@H](CCCCN)C(N)=O)[C@@H](C)O)[C@@H](C)CC` [2a], the IC50 against VDAC was found to be 13.9 ± 3.1 µM.
On to [Nle]IAAQWWAYYL [6q], for which the “activity / affinity for VDAC on the screening assay (mitoGCaMP2 fluorescence)” value (from here on “activity / affinity for VDAC”) on VDAC (setting [3]) is given as “more significant”.
As for `CC(C)CCC[C@@H](C)[C@H]1CC[C@H]2[C@@H]3CCC4=CC(=NO)CC[C@]4(C)[C@H]3CC[C@]12C` [olesoxime], in the series on Schwann cells, the demyelination entry is listed as “block demyelination” and the mitochondrial calcium release result was “prevent mitochondrial calcium release”.
Turning to “AQLWAYYYTEWK [5t, tested peptide also contains Tat]”, in the series with VDAC (setting [3]), the “activity / affinity for VDAC” value is recorded as “beneficial effect”.
Regarding “AQWWAYYFTEWK [5x, tested peptide also contains Tat]”, in the series with VDAC (setting [3]), the “activity / affinity for VDAC” value is reported as “more significant”. In the series on sciatic nerve explants (24h, serum-free medium), the “percentage of damaged fibers” value was “significantly reduced the level of damaged fibers”.
In the case of Ac-AQLLAYYFTELKGRKKRRQRRRPPQ-NH2 [3c], the fraction remaining at 5 min, 66.6 µmol/L in series [1] (25% rat serum, after 5 min, preliminary experiment, read-out: remaining peptide in rat serum) came out at 10%. Further, the “percentage of damaged fibers” value in the series with sciatic nerve explants (24h, serum-free medium) is “same percentage of damaged fibers as the negative control”.
Take `CC(=O)N[C@@H](C)C(=O)NC(C)(C)C(=O)N[C@@H](C)C(=O)NC(C)(C)C(=O)N[C@@H](C)C(=O)N[C@@H](CCC(N)=O)C(=O)N[C@@H](CC(C)C)C(=O)N[C@@H](CC(C)C)C(=O)NC(C)(C)C(=O)N[C@@H](Cc1ccc(O)cc1)C(=O)N[C@@H](Cc1ccc(O)cc1)C(=O)N[C@@H](Cc1ccccc1)C(=O)N[C@H](C(=O)N[C@@H](CCC(=O)O)C(=O)N[C@@H](CC(C)C)C(=O)N[C@@H](CCCCN)C(N)=O)[C@@H](C)O` [7d′] (Ac-A[Aib]A[Aib]AQLL[Aib]YYFTELK-NH2; N-terminus and C-terminus assumed): the stability towards elastase entry in series [2] is listed as “improve their stability towards elastase”.
For the compound `C[C@H](NC(=O)C(C)(C)n1cc(-c2cccc(C(F)(F)F)c2)nn1)C(=O)N[C@@H](CCC(N)=O)C(=O)N[C@@H](Cc1c[nH]c2ccccc12)C(=O)N[C@@H](Cc1c[nH]c2ccccc12)C(=O)NC(C)(C)C(=O)N[C@@H](Cc1ccc(O)cc1)C(=O)N[C@@H](Cc1ccc(O)cc1)C(=O)N[C@@H](Cc1ccccc1)C(=O)N[C@H](C(=O)N[C@@H](CCC(=O)O)C(=O)N[C@@H](Cc1c[nH]c2ccccc12)C(=O)N[C@@H](CCCCN)C(=O)NCC(=O)N[C@@H](CCCNC(=N)N)C(=O)N[C@@H](CCCCN)C(=O)N[C@@H](CCCCN)C(=O)N[C@@H](CCCNC(=N)N)C(=O)N[C@@H](CCCNC(=N)N)C(=O)N[C@@H](CCC(N)=O)C(=O)N[C@@H](CCCNC(=N)N)C(=O)N[C@@H](CCCNC(=N)N)C(=O)N[C@@H](CCCNC(=N)N)C(=O)N1CCC[C@H]1C(=O)N1CCC[C@H]1C(=O)N[C@@H](CCC(N)=O)C(N)=O)[C@@H](C)O` [7g] (X1-AQWW[Aib]YYFTEWKGRKKRRQRRRPPQ-NH2; N-terminus assumed), the “activity / affinity for VDAC” value on VDAC (setting [3]) is given as “significant higher activity”. Besides, the “activity / affinity for VDAC” value at VDAC (compounds at 10 μM) was “significantly more active than compounds 3c and 5x”. In addition, in the series on sciatic nerve explants (setting [4]), the nerve fibers damage entry was “significantly decreased nerve fibers damage” and the “preservation of the myelin sheath” value is given as “significantly preserve the myelin sheath at a similar level to an intact nerve”. Further, in the series on sciatic nerve explants (24h, serum-free medium), the myelin sheath pattern result was “same myelin sheath pattern as an intact nerve” and the “percentage of damaged fibers” value was “significantly reduced the level of damaged fibers”.
For the compound `C[C@H](NC(=O)[C@H](Cc1c[nH]c2ccccc12)NC(=O)[C@H](Cc1c[nH]c2ccccc12)NC(=O)[C@H](CCC(N)=O)NC(=O)[C@H](C)NC(=O)C(C)(C)n1cc(-c2cccc(C(F)(F)F)c2)nn1)C(=O)N[C@@H](Cc1ccc(O)cc1)C(=O)N[C@@H](Cc1ccc(O)cc1)C(=O)N[C@@H](Cc1ccccc1)C(=O)N[C@H](C(=O)N[C@@H](CCC(=O)O)C(=O)N[C@@H](Cc1c[nH]c2ccccc12)C(=O)N[C@@H](CCCCN)C(=O)NCC(=O)N[C@@H](CCCNC(=N)N)C(=O)N[C@@H](CCCCN)C(=O)N[C@@H](CCCCN)C(=O)N[C@@H](CCCNC(=N)N)C(=O)N[C@@H](CCCNC(=N)N)C(=O)N[C@@H](CCC(N)=O)C(=O)N[C@@H](CCCNC(=N)N)C(=O)N[C@@H](CCCNC(=N)N)C(=O)N[C@@H](CCCNC(=N)N)C(=O)N1CCC[C@H]1C(=O)N1CCC[C@H]1C(=O)N[C@@H](CCC(N)=O)C(N)=O)[C@@H](C)O` [7f] (X1-AQWWAYYFTEWKGRKKRRQRRRPPQ-NH2), the IC50 on VDAC is 2.6 ± 0.6 µM. Also, in series [2], the stability towards elastase entry is on record as “most stable compound”.
“AQWLAYYLTELK [5l, tested peptide also contains Tat]”: the “activity / affinity for VDAC” value with VDAC (setting [3]) is on record as “beneficial effect”.
As for “AQWLAYYYTELK [5m, tested peptide also contains Tat]”, the “activity / affinity for VDAC” value with VDAC (setting [3]) is recorded as “equally accommodated”.
`CC(=O)N[C@@H](C)C(=O)N[C@@H](CCC(N)=O)C(=O)N[C@@H](CC(C)C)C(=O)N[C@@H](CC(C)C)C(=O)NC(C)(C)C(=O)N[C@@H](Cc1ccc(O)cc1)C(=O)N[C@@H](Cc1ccc(O)cc1)C(=O)N[C@@H](Cc1ccccc1)C(=O)N[C@H](C(=O)N[C@@H](CCC(=O)O)C(=O)N[C@@H](CC(C)C)C(=O)N[C@@H](CCCCN)C(N)=O)[C@@H](C)O` [7a′] (Ac-AQLL[Aib]YYFTELK-NH2; N-terminus and C-terminus assumed): the fraction remaining at 24 h, 66.6 µmol/L in series [1] (37° C., after 24 h, read-out: remaining compound in rat serum) was ~65%. Moreover, the stability towards elastase entry in series [2] is recorded as “improve their stability towards elastase”.
Consider [Nle]IAAQWLAYYY [6m], for which the “activity / affinity for VDAC” value on VDAC (setting [3]) is recorded as “equally accommodated”.
For the compound [Nle]IAAQLWAYYY [6o], the “activity / affinity for VDAC” value at VDAC (setting [3]) is recorded as “equally accommodated”.
